Experimental findings from patent publication US9090565B2, “1-pyridazinyl-hydroxyimino-3-phenyl-propanes” (Hoffmann-La Roche Inc., priority 2011, dated 2015) are described below.

As a reminder, the EC50 is the concentration at which the effect is half-maximal.

In the assay the target is T1, human GPBAR1 receptor (Homo sapiens, UniProt Q8TDU6).
T1 construct: expressed in transfected cells
T1 sequence (Q8TDU6 1-330): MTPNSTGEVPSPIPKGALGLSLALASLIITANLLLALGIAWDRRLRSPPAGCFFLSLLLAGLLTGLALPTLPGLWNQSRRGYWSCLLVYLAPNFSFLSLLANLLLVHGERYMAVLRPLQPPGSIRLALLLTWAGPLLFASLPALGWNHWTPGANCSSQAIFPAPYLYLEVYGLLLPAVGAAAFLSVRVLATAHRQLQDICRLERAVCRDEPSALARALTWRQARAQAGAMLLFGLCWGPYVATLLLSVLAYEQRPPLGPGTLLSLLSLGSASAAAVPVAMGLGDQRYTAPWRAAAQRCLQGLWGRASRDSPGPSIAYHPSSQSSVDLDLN
As to the kind of experiment: functional cAMP assay in CHO-dhfr(minus) cells expressing human GPBAR1 receptors. The assay is classed as cell-based. The following applies: TR-FRET, 30 min at 30° C. The source says: The cDNA of the human GPBAR1 receptor (Genbank: NM_170699 with the exception of a silent C:G mutation at position 339 from the start codon) was amplified by polymerase chain reaction (PCR) from human cDNA and inserted into pCineo (Promega) by standard methods (Current Protocols in Molecular Biology, Wiley Press, ed. Ausubel et al.). The final clone was verified by DNA sequence analysis. The plasmid was transfected into CHO cells deficient in dihydrofolate reductase activity (CHO-dhfr-) using Lipofectamine plus (Invitrogen). Clones were isolated in limited dilution conditions and identified by activities in the cAMP assay using lithocholic acid as agonist. A clonal cell line displaying the greatest activity in cAMP increases was selected and identified as giving consistently good responses for up to at least 20 passages.
CHO-dhfr(minus) cells expressing human GPBAR1 receptors are seeded 17-24 hours prior to the experiment 50,000 cells per well in a black 96 well plate with flat clear bottom (Corning Costar #3904) in DMEM (Invitrogen No. 31331), 1×HT supplement, with 10% fetal calf serum and incubated at 5% CO2 and 37° C. in a humidified incubator. The growth medium was exchanged with Krebs Ringer Bicarbonate buffer with 1 mM IBMX and incubated at 30° C. for 30 min. Compounds were added to a final assay volume of 100 μl and incubated for 30 min at 30° C. The assay was stopped by the addition of 50 μl lysis reagent (Tris, NaCl, 1.5% Triton X100, 2.5% NP40, 10% NaN3) and 50 μl detection solutions (20 μM mAb Alexa700-cAMP 1:1, and 48 μM Ruthenium-2-AHA-cAMP) and shaked for 2 h at room temperature. The time-resolved energy transfer is measured by a TRF reader (Evotec Technologies GrmbH, Hamburg Germany), equipped with a ND:YAG laser as excitation source. The plate is measured twice with the excitation at 355 nm and at the emission with a delay of 100 ns and a gate of 100 ns, total exposure time 10 s at 730 (bandwidth 30 nm) or 645 nm (bandwidth 75 nm), respectively. The measured signal at 730 nm has to be corrected for the ruthenium background, the direct excitation of Alexa and the buffer control. The FRET signal is calculated as follows: FRET=T730−Alexa730-P(T645−B645) with P=Ru730−B730/Ru645−B645, where T730 is the test well measured at […], T645 is the test well measured at 645 nm, B730 and B645 are the buffer controls at 730 nm and 645 nm, respectively, cAMP content is determined from the function of a standard curve spanning from 10 μM to 0.13 nM cAMP.
EC50 values were determined using Activity Base analysis (ID Business Solution, Limited). The EC50 values for a wide range of bile acids generated from this assay were in agreement with the values published in the scientific literature. Specificity for GPBAR1 was tested in non-transfected CHO cells in the same assay as above.
(Cyclic AMP is a second messenger, typically raised through Gs and lowered through Gi signalling.)
Consider `Cc1ccccc1C(C/C(=N\O)c1ccnnc1)c1ccc(C2CCN(S(C)(=O)=O)CC2)cc1` (centres unmarked) [Example 3, (E)-3-(4-(1-(methylsulfonyl)piperidin-4-yl)phenyl)-1-(pyridazin-4-yl)-3-o-tolylpropan-1-one oxime], for which the midpoint of the response, the EC50, lay at 956 nM.
For the molecule `Cc1ccccc1[C@H](C/C(=N\O)c1ccc(=O)n(C)n1)c1ccc(Br)cc1` [Example 7, (R,E)-6-(3-(4-Bromophenyl)-1-(hydroxyimino)-3-o-tolylpropyl)-2-methylpyridazin-3(2H)-one], it took 6 nM to reach a half-maximal effect (EC50).
The same measure for `Cc1ccccc1[C@@H](C/C(=N\O)c1ccc(=O)[nH]n1)c1ccc(Br)cc1` [Example 14, (S,E)-6-(3-(4-Bromophenyl)-1-(hydroxyimino)-3-o-tolylpropyl)pyridazin-3(2H)-one]: 648 nM.
The figure for `Cc1ccccc1[C@@H](C/C(=N\O)c1ccn[nH]c1=O)c1ccc(Br)cc1` [Example 5, (S,E)-4-(3-(4-Bromophenyl)-1-(hydroxyimino)-3-o-tolylpropyl)pyridazin-3(2H)-one] is 148 nM; for `Cc1ccccc1[C@H](C/C(=N\O)c1ccnnc1)c1ccc(Br)cc1` [Example 1, (R,E)-3-(4-Bromophenyl)-1-(pyridazin-4-yl)-3-o-tolylpropan-1-one oxime] it is 80 nM; for `Cc1ccccc1[C@H](C/C(=N\O)c1ccc(=O)n(C)n1)c1ccc(S(C)(=O)=O)cc1` [Example 10, (R,E)-6-(1-(Hydroxyimino)-3-(4-(methylsulfonyl)phenyl)-3-o-tolylpropyl)-2-methylpyridazin-3(2H)-one] it is 60 nM.
The same measure for `Cc1ccccc1[C@H](C/C(=N\O)c1ccn[nH]c1=O)c1ccc(C2CCN(S(C)(=O)=O)CC2)cc1` [Example 12, (R,E)-4-(1-(Hydroxyimino)-3-(4-(1-(methylsulfonyl)piperidin-4-yl)phenyl)-3-o-tolylpropyl)pyridazin-3(2H)-one]: 527 nM; for `Cc1ccccc1[C@H](C/C(=N\O)c1ccc(=O)n(C)n1)c1ccc(C2CCN(S(C)(=O)=O)CC2)cc1` [Example 8, (R,E)-6-(1-(Hydroxyimino)-3-(4-(1-(methylsulfonyl)piperidin-4-yl)phenyl)-3-o-tolylpropyl)-2-methylpyridazin-3(2H)-one]: 33 nM.
With `Cc1ccccc1[C@H](C/C(=N\O)c1ccnn(C)c1=O)c1ccc(C2CCN(S(C)(=O)=O)CC2)cc1` [Example 13, (R,E)-4-(1-(Hydroxyimino)-3-(4-(1-(methylsulfonyl)piperidin-4-yl)phenyl)-3-o-tolylpropyl)-2-methylpyridazin-3(2H)-one], it took 179 nM to reach a half-maximal effect (EC50). This EC50 lies about 5.4-fold higher than the previous one.
The same measure for `Cc1ccccc1[C@@H](C/C(=N\O)c1ccnn(C)c1=O)c1ccc(Br)cc1` [Example 6, (S,E)-4-(3-(4-Bromophenyl)-1-(hydroxyimino)-3-o-tolylpropyl)-2-methylpyridazin-3(2H)-one]: 90 nM.
`COc1nnccc1/C(C[C@H](c1ccc(C2CCN(S(C)(=O)=O)CC2)cc1)c1ccccc1C)=N/O` [Example 11, (R,E)-1-(3-Methoxypyridazin-4-yl)-3-(4-(1-(methylsulfonyl)piperidin-4-yl)phenyl)-3-o-tolylpropan-1-one oxime]: the half-maximal effective concentration (EC50) came to 52 nM.
The figure for `COc1nnccc1/C(C[C@@H](c1ccc(Br)cc1)c1ccccc1C)=N/O` [Example 4, (S,E)-3-(4-bromophenyl)-1-(3-methoxypyridazin-4-yl)-3-o-tolylpropan-1-one oxime] is 31 nM; for `Cc1ccccc1[C@H](C/C(=N\O)c1ccc(=O)n(C)n1)c1ccc(-c2ccc(C(=O)O)cc2)cc1` [Example 9, (R,E)-4′-(3-(Hydroxyimino)-3-(1-methyl-6-oxo-1,6-dihydropyridazin-3-yl)-1-o-tolylpropyl)biphenyl-4-carboxylic acid] it is 61 nM; for `Cc1ccccc1C(C/C(=N\O)c1ccnnc1)c1ccc(-c2ccc(C(=O)O)cc2)cc1` (centres unmarked) [Example 2, (E)-4′-(3-(hydroxyimino)-3-(pyridazin-4-yl)-1-o-tolylpropyl)biphenyl-4-carboxylic acid] it is 1560 nM.
